Experimental data published in US20240317686A1, “RORyT MODULATOR, AND PREPARATION METHOD THEREFOR AND APPLICATION THEREOF” (SHANGHAI PHARMACEUTICALS HOLDING CO., LTD., priority 2020, published 2024).

Target: T1, RORγt (Homo sapiens, UniProt P51449)
T1 construct: Prepare 4×RORgt-LBD in 1× buffer
T1 sequence (P51449 269-508 limits assumed): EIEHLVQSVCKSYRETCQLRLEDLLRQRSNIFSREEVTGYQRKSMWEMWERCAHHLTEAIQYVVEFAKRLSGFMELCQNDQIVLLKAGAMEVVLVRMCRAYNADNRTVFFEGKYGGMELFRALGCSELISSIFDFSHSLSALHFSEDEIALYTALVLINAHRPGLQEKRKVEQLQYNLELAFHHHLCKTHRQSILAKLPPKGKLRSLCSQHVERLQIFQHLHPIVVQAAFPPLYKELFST
Test: Fluorescence resonance energy transfer (FRET) assay of inhibitory activity on RORγt
Type: biochemical
Conditions: RORgt-LBD GST with SRC peptide
Procedure: Fluorescence resonance energy transfer (FRET) experiment was performed to assay the inhibitory activity of the compound of the present invention on RORγt.
1) Preparation of DMSO stock solutions of the compounds: All compounds were dissolved in DMSO to prepare 10 mM stock solutions.
2) Compound storage: After the compound was dissolved in DMSO, the solution can be stored in a desiccator at room temperature for three months. For long-term storage, the solution should be put in a −20° C. refrigerator.
3) Preparation of working solution: • a) Positive control compound AZD0284: Starting from 500 µM, the solution was diluted serially by 3-folds with DMSO to obtain a 10-concentration gradient, each concentration with 3 replicate wells. 2 wells were pipetted. The gradiently diluted compound was diluted in a reaction buffer to obtain a 4× working solution (starting from 40 μM, diluted gradiently by 3-folds) of the positive control compound. • b) Compounds to be tested: Starting from 500 μM, the solution was diluted serially by 3-folds with DMSO to obtain a 10-concentration gradient, each concentration with 3 replicate wells. 2 wells were pipetted. The gradiently diluted compound was diluted in a reaction buffer to obtain a 4× working solution ([…], diluted gradiently by 3-folds) of the compounds to be tested. • c) Prepare a 4× negative control (8% DMSO). • d) Centrifuge the plate at 1000 rpm for 1 min.
1) Prepare 4× serially diluted compounds in 1× buffer.
2) Add 5 μl of the 4× serially diluted compound (prepared in step 1) to a 384 assay plate (784075, Greiner).
3) Prepare 4×RORgt-LBD in 1× buffer.
4) Add 5 μl of the 4×RORgt-LBD (prepared in step 3) to the 384 assay plate (prepared in step 2).
5) Incubate the assay plate for 15 min at room temperature, protected from light.
6) Prepare a 2× mixture of SRC, anti-GST Eu and streptavidin-d2 in 1× […].
7) Add 10 μl of the 2× mixture (prepared in step 6) to the 384 assay plate (prepared in step 4).
8) Centrifuge the 384 assay plates at 1000 g for 1 min.
9) Incubate for 3 h at room temperature, protected from light.
10) Read the plate at wavelengths of 665 nm and 615 nm on an Envision 2104 plate reader.
Relative ratio (RR): Calculate the relative ratio (response value at 665 nm/response value at 615 nm-response value in blank background) of each well.
Inhibition rate %=[1−(fluorescence detection value of the compound−fluorescence detection average of the positive compound)/(fluorescence detection average of the negative control−fluorescence detection average of the positive compound)]×100
Calculate the IC50 and dose-response curve of the compound: The IC50 and dose-response curve of the compound were obtained via Graphpad 8.0 by calculating the inhibition rate of the compound and the log value of the compound concentration.

An IC50 of 10 to 50 nM was found for `CCn1cc(C(C)(C)C(=O)c2ccc(NC(=O)Cc3ccc(S(=O)(=O)CC)cc3)cn2)cn1` [Compound I-42, N-(6-(2-(1-ethyl-1H-pyrazol-4-yl)-2-methylpropionyl)pyridin-3-yl)-2-(4-(ethylsulfonyl)phenyl) acetamide] in this work.
An IC50 of 10 to 50 nM was found for `CCS(=O)(=O)c1ccc(CC(=O)Nc2ccc(C(=O)C(C)(C)c3ccc(Cl)cc3)nc2)nc1` [Compound I-24, N-(6-(2-(4-chlorophenyl)-2-methylpropionyl)pyridin-3-yl)-2-(5-(ethylsulfonyl)pyridin-2-yl)acetamide] in this work.
In the case of `CCS(=O)(=O)c1ccc(CC(=O)Nc2ccc(C(=O)C(F)(F)c3ccc(Cl)cc3)nc2)cc1` [Compound I-39, N-(6-(2-(4-chlorophenyl)-2,2-difluoroacetyl)pyridin-3-yl)-2-(4-(ethylsulfonyl)phenyl)acetamide], the IC50 is reported as > 1000 nM.
An IC50 of 1 to 10 nM was found for `CCS(=O)(=O)c1ccc(CC(=O)Nc2ccc(C(=O)C(C)(C)c3ccc(C)cn3)nc2)cc1` [Compound I-30] in this work.
An IC50 of 1 to 10 nM was found for `CCS(=O)(=O)c1ccc(CC(=O)Nc2ccc(C(=O)C(C)(C)c3ccncc3)nc2)cc1` [Compound I-19] in this work.
An IC50 of 1 to 10 nM was found for `CCS(=O)(=O)c1ccc(CC(=O)Nc2ccc(C(=O)C(C)(C)c3ccc(F)c(Br)c3)nc2)cc1` [Compound I-15] in this work.
An IC50 of 50 to 100 nM was found for `CCS(=O)(=O)c1ccc(CC(=O)Nc2ccc(C(=O)C(C)(C)c3nc(C)co3)nc2)cc1` [Compound I-62] in this work.
An IC50 of 10 to 50 nM was found for `CCS(=O)(=O)c1ccc(CC(=O)Nc2ccc(C(=O)C(C)(C)c3nc(C)c(C)o3)nc2)cc1` [Compound I-56, N-(6-(2-(4,5-dimethyloxazol-2-yl)-2-methylpropionyl)pyridin-3-yl)-2-(4-(ethylsulfonyl)phenyl) acetamide] in this work.
An IC50 of 10 to 50 nM was found for `CCS(=O)(=O)c1ccc(CC(=O)Nc2ccc(C(=O)C(C)(C)c3cccnc3)nc2)cc1` [Compound I-7, 2-(4-(ethylsulfonyl)phenyl)-N-(6-(2-methyl-2-(pyridin-3-yl)propanoyl)pyridin-3-yl)acetamide] in this work.
An IC50 of 100 to 1000 nM was found for `CN(C)S(=O)(=O)c1ccc(CC(=O)Nc2ccc(C(=O)C3(c4ccc(F)cc4)CC(F)(F)C3)nc2)cc1` [Compound I-67] in this work.
An IC50 of 1 to 10 nM was found for `CCS(=O)(=O)c1ccc(CC(=O)Nc2ccc(C(=O)C3(c4ccc(Cl)cc4)CC(F)(F)C3)nc2)cc1` [Compound I-35] in this work.
An IC50 of 10 to 50 nM was found for `CCS(=O)(=O)c1ccc(CC(=O)Nc2ccc(C(=O)C(C)(C)c3cnn(C)c3)nc2)cc1` [Compound I-23, 2-(4-(ethylsulfonyl)phenyl)-N-(6-(2-methyl-2-(1-methyl-1H-pyrazol-4-yl)propionyl)pyridin-3-yl)acetamide] in this work.
An IC50 of 100 to 1000 nM was found for `CCS(=O)(=O)c1ccc(CC(=O)Nc2ccc(C(=O)C3(c4ccc(F)cn4)CC3)nc2)cc1` [Compound I-68, 2-(4-(ethylsulfonyl)phenyl)-N-(6-(1-(5-fluoropyridin-2-yl)cyclopropane-1-carbonyl)pyridin-3-yl)acetamide] in this work.
An IC50 of 1 to 10 nM was found for `CCS(=O)(=O)c1ccc(CC(=O)Nc2ccc(C(=O)C3(c4ccc(Cl)cc4)CC3)nc2)cc1` [Compound I-11, N-(6-(1-(4-chlorophenyl)cyclopropane-1-carbonyl)pyridin-3-yl)-2-(4-(ethylsulfonyl)phenyl)acetamide] in this work.
An IC50 of 100 to 1000 nM was found for `CCS(=O)(=O)c1ccc(CC(=O)Nc2ccc(C(=O)C(C)(C)c3cnc(C)nc3)nc2)cc1` [Compound I-55] in this work.
An IC50 of 1 to 10 nM was found for `CCS(=O)(=O)c1ccc(CC(=O)Nc2ccc(C(=O)C(C)(C)c3ccnc(C(F)(F)F)c3)nc2)cc1` [Compound I-52] in this work.
An IC50 of 1 to 10 nM was found for `CCS(=O)(=O)c1ccc(CC(=O)Nc2ccc(C(=O)C(C)(C)c3cccc(C#N)c3)nc2)cc1` [Compound I-9, N-[6-[2-(3-cyanophenyl)-2-methylpropionyl]-3-pyridyl]-2-(4-ethylsulfonylphenyl)acetamide] in this work.
An IC50 of 10 to 50 nM was found for `CCS(=O)(=O)c1ccc(CC(=O)Nc2ccc(C(=O)C3(c4ccccn4)CCC3)nc2)cc1` [Compound I-46, 2-(4-(ethylsulfonyl)phenyl)-N-(6-(1-(pyridin-2-yl)cyclobutane-1-carbonyl)pyridin-3-yl)acetamide] in this work.
An IC50 of 100 to 1000 nM was found for `CCS(=O)(=O)c1ccc(CC(=O)Nc2ccc(C(=O)C3(c4cnn(C)c4)CC3)nc2)cc1` [Compound I-60, 2-(4-(ethylsulfonyl)phenyl)-N-(6-(1-(1-methyl-1H-pyrazol-4-yl)cyclopropane-1-carbonyl)pyridin-3-yl)acetamide] in this work.
